# Measured values: US7960130B2, “Method for activation of transient receptor potential cation channel, subfamily A, member 1 using acetaldehyde” (Korea University Industry and Academy Cooperation Foundation, priority 2008, dated 2011)
# What was measured:
# ICR mice = experiment: Acute hindpaw licking/flicking behavioral analysis; conditions: 10 min
# Protocol: This analysis was performed in accordance with protocols approved by the University Committee on Laboratory Animals. Mice were acclimated for 1 h to the test environment prior to experiments. Drugs dissolved in vehicle (PBS containing 0.5% Tween 80) were injected into mice right hindpaws intradermally.
# TRPV1 = target: T1, TRPV1 (Rattus norvegicus, UniProt O35433); experiment: Calcium imaging of TRP transfected cell lines treated with acetaldehyde (TRPV1); format: cell-based; conditions: 1 mM acetaldehyde
# T1 construct: expressed in transfected cells; host or cells: HEK293T (ATCC CRL-11268), pcDNA3.1
# T1 sequence (O35433 whole entry): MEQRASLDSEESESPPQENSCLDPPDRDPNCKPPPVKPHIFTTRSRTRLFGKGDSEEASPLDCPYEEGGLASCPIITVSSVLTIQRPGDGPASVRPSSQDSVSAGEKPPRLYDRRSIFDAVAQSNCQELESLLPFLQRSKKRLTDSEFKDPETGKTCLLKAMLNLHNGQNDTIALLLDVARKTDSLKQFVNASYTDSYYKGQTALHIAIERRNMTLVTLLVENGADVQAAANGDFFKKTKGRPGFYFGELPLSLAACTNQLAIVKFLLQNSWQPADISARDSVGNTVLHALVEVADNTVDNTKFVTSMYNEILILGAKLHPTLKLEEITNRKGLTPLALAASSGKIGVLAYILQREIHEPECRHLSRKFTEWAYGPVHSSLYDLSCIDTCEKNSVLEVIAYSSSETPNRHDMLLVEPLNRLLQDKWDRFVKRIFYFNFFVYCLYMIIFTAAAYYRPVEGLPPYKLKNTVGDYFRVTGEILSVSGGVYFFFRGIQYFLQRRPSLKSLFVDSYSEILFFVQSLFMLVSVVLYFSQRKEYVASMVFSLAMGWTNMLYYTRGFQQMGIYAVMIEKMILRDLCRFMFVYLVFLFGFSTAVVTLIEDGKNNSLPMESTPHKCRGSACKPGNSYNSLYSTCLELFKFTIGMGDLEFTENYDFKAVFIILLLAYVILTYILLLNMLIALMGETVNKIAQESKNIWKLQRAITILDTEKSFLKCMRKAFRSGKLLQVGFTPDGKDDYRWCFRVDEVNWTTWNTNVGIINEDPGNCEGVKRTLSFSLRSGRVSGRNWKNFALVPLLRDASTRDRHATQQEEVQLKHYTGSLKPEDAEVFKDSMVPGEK
# Text: (§1) HEK293T cell line (ATCC CRL-11268) was transiently transfected with plasmid DNA containing polynucleotide encoding hTRPA1 (SEQ. ID. NO: 1), rTRPV2 (SEQ. ID. NO: 2), rTRPV1 (SEQ. ID. NO: 3), mTRPV4 (SEQ. ID. NO: 4), mTRPA1 (SEQ. ID. NO: 5), hTRPV3 (SEQ. ID. NO: 6) or mTRPM8 (SEQ. ID. NO: 7).
# (§2) Particularly, the HEK293T cell line was transiently transfected with individual TRP channel plasmid (pcDNA3.1 containing polynucleotide encoding hTRPA1, rTRPV2, rTRPV1 or mTRPV4; pcDNA5/FRT containing polynucleotide encoding mTRPA1, hTRPV3 or mTRPM8) 3 μg per 35-mm dish and 600 ng/well of pcDNA3 (Invitrogen Corp., USA; containing green fluorescent protein (GFP) cDNA) using Fugene6 (Roche Diagnostics, USA) according to manufacturer's instruction. The transformed cells were cultured in DMEM/F12 containing 10% FBS and 1% penicillin/streptomycin in a CO2 incubator for 24 hours. The cells were replated onto poly-L-lysine-coated glass coverslips, followed by further culture for 10-24 hours.
# (§3) Particularly, the transfected cell line of Example <4-1> was loaded with Fluo-3AM (5 μM; Sigma Aldrich, USA) in the bath solution (140 mM NaCl, 5 mM KCl, 2 mM CaCl2, 1 mM MgCl2, 10 mM HEPES; adjusted to pH 7.4 with NaOH) containing 0.02% pluronic acid (Invitrogen, USA). […]
# TRPV2 = target: T2, TRPV2 (Rattus norvegicus, UniProt Q9WUD2, A713V/L151P/T158I); experiment: Calcium imaging of TRP transfected cell lines treated with acetaldehyde (TRPV2); format: cell-based; conditions: 1 mM acetaldehyde
# T2 construct: expressed in transfected cells; host or cells: HEK293T (ATCC CRL-11268), pcDNA3.1
# T2 sequence (Q9WUD2 1-761 L151P/T158I/A713V): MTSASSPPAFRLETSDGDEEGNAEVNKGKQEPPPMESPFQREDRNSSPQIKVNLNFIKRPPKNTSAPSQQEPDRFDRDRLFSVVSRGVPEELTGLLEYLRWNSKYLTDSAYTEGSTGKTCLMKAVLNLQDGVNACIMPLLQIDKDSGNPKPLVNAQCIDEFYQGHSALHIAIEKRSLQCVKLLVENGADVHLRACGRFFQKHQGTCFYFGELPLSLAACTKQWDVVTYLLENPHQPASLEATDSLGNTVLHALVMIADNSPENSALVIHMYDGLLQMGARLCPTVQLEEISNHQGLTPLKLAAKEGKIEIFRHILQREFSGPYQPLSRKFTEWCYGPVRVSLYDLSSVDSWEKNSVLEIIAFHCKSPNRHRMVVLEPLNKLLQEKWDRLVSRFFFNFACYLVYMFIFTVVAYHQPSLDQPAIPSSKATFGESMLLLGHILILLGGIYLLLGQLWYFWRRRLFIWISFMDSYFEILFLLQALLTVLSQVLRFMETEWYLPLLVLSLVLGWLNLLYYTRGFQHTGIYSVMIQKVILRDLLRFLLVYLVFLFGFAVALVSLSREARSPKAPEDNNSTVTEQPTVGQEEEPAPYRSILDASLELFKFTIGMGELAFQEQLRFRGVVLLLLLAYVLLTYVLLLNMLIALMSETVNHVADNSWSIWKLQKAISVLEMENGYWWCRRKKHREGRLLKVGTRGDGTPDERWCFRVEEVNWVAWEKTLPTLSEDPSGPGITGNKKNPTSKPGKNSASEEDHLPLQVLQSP
# Text: as §1, §2, §3
# TRPA1 = experiment: Whole-cell voltage-clamp recording of TRPA1 transfected cell line; format: cell-based; conditions: 1 mM acetaldehyde, 300 μM cinnamaldehyde, voltage ramp -80 to +80 mV, n=5
# Protocol: as §2
# Stock solutions were made using water or ethanol, and were diluted with test solutions before use.
# This experiment was repeated 5 times.
# trigeminal neurons = experiment: Fluo-3 calcium imaging of cultured mouse trigeminal neurons
# Protocol: The trigeminal neurons prepared thereby were then plated onto poly-L-lysine-coated coverslips in DMEM/F12 containing 10% FBS, 1% penicillin/streptomycin and 5 ng/Ml of 2.5S NGF (Invitrogen, USA), nerve growth factor (Invitrogen), followed by culture in a CO2 incubator for 48-72 hours.
# Calcium imaging was performed with a confocal microscope (LSM5 Pascal, Carl Zeiss, Germany), and time-lapse images (488 nm excitation/514 nm emission) were collected every 3 seconds using Carl Zeiss ratio tool software (Carl Zeiss, Germany).
smiles,measurement,setting,value
CC=O [acetaldehyde],dose dependence of acetaldehyde-induced nociceptive behaviors,"ICR mice; 1 mM, 10 mM, 100 mM acetaldehyde intradermal",increased in a dose-dependent manner
same,acute hindpaw licking/flicking behavior elicited,"ICR mice; intradermal into hindpaw, 10 μl, 100 mM acetaldehyde or 10 mM cinnamaldehyde, n=5",elicited acute licking or flicking behavior
same,activation of TRPV1 by acetaldehyde,TRPV1,only TRPA1 was activated
same,activation of TRPV2 by acetaldehyde,TRPV2,only TRPA1 was activated
same,whole-cell current response in TRPA1 expressing cells,TRPA1,pronounced outwardly rectifying current occurred
same,acetaldehyde response of capsaicin-cinnamaldehyde-positive neurons,"trigeminal neurons; 1 mM acetaldehyde, n=19",did response
same,acetaldehyde response of menthol-positive neurons,"trigeminal neurons; 1 mM acetaldehyde, n=36, considered to express TRPM8",did not show response
same,acetaldehyde response of capsaicin-positive/cinnamaldehyde-negative neurons,"trigeminal neurons; 1 mM acetaldehyde, n=102, considered to express TRPV1",did not show response
same,EC50,"trigeminal neurons; Mus musculus, Neuron, read-out: EC50 of acetaldehyde alone (Kd of dose-response curve) in trigeminal neurons",740 µM
same,maximum efficacy heightened with PGE2 versus acetaldehyde alone,trigeminal neurons; acetaldehyde + 1 μM PGE2,1.2 fold
